Among the data in patent US8283356B2, “2,4- Di(hetero)-arylamino-pyrimidine derivatives as ZAP-70 and/or SYK inhibitors” (Novartis AG, priority 2003, dated 2012) are IC50 values, retold here.

The structures appear in SMILES notation.

In this assay the target is T1, ZAP-70 (Homo sapiens, UniProt P43403).
T1 construct: purchased Upstate Biotechnology, Lake Placid, N.Y
T1 sequence (P43403 1-619): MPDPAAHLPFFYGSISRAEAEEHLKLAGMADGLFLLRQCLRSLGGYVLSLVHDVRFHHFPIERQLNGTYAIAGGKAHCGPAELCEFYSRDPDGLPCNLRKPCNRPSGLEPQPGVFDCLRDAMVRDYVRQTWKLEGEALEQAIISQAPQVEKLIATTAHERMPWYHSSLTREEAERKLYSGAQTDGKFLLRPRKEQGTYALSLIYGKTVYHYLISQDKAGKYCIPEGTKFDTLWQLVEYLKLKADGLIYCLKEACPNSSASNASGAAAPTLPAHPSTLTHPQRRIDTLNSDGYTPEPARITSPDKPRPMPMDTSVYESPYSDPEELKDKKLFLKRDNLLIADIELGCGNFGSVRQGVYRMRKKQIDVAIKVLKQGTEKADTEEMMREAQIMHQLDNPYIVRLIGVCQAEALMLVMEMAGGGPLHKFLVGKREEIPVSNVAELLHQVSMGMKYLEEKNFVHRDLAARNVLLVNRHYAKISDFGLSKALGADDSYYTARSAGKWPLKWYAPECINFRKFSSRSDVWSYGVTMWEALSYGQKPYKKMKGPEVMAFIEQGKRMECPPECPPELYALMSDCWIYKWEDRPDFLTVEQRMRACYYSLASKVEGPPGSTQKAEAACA
In words: ZAP-70 kinase assay (time-resolved fluorescence resonance energy transfer). As to conditions: 80 nM ZAP-70, 4 μM ATP, LAT-11 peptide substrate. It counts as biochemical. Here is the method:
1. ZAP-70 Cell-Free Kinase Assays
ZAP-70 and Lck (lymphoid T-cell protein tyrosine kinase) are commercially available from Upstate Biotechnology, Lake Placid, N.Y.
ZAP-70 Kinase assay: The activities of the compounds of invention are determined in a homogenous ZAP-70 kinase assay based on time-resolved fluorescence resonance energy transfer. Briefly, 80 nM ZAP-70 are incubated with 80 nM Lck and 4 μM ATP in ZAP-70 kinase buffer (20 mM Tris, pH 7.5, 10 μM Na3VO4, 1 mM DTT, 1 mM MnCl2, 0.01% bovine serum albumin, 0.05% Tween 20) for 1 hour at room temperature in a siliconized polypropylene tube. Then, the selective Lck inhibitor PP2 (4-amino-5-(4-chloro-phenyl)-7-(t-butyl)pyrazolo[3,4-d]pyrimidine; Alexis Biochemicals) is added (final concentration 1.2 μM) and incubated for further 10 min. Ten μl of this solution is mixed with the 10 μl biotinylated peptide LAT-11 (linker for activation of T cell prepared as disclosed in Example 1A of WO 02/12275, the contents of which, particularly with reference to Example 1A, is incorporated herein by reference; 1 μM) as substrate and 20 μl of serial dilutions of inhibitors and incubated for 4 hours at room temperature. The kinase reaction is terminated with 10 μl of a 10 mM EDTA solution in detection buffer (20 mM Tris, pH 7.5, 0.01% bovine serum albumin, 0.05% Tween 20). The detection phase is performed by addition of 50 μl europium (Eu)-labelled anti-phosphotyrosine antibody (e.g. Eu-PT66; final concentration 0.125 nM; Advant/Wallac) and 50 μl streptavidin-allophycocyanine (SA-APC; final concentration 40 nM) in detection buffer. After 1 hour incubation at room temperature fluorescence is measured, e.g., on the Victor2 Multilabel Counter (VVallac) at 665 nm. Background values (low control) are obtained in the absence of test samples and ATP and are subtracted from all values. Signals obtained in the absence of test samples are taken as 100% (high control). The inhibition obtained in the presence of test compounds is calculated as percent inhibition of the high control. The concentration of test compounds resulting in 50% inhibition (IC50) is determined from the dose-response curves.
Consider `CNc1cc(Nc2nccc(Nc3ccc4c(c3S(N)(=O)=O)OCCO4)n2)ccc1C` [Example 140, 6-[2-(4-Methyl-3-methylamino-phenylamino)-pyrimidin-4-ylamino]-2,3-dihydro-benzo[1,4]dioxine-5-sulfonic acid amide], for which the IC50 was 0.01 µM.
In turn, `COCCNc1cc(Nc2nccc(Nc3ccc4c(c3S(N)(=O)=O)OCCO4)n2)ccc1C` [Example 57] yielded an IC50 of 0.013 µM.
Turning to `NS(=O)(=O)c1c(Nc2ccnc(Nc3ccc4c(c3)NCC4)n2)ccc2c1OCCO2` [Example 144, 6-[2-(2,3-Dihydro-1H-indol-6-ylamino)-pyrimidin-4-ylamino]-2,3-dihydro-benzo[1,4]dioxine-5-sulfonic acid amide], the IC50 came to 0.021 µM.
In the case of `COc1cccc(Nc2ccnc(Nc3ccc4c(c3)NCC4)n2)c1S(N)(=O)=O` [Example 141, 2-[2-(2,3-Dihydro-1H-indol-6-ylamino)-pyrimidin-4-ylamino]-6-methoxy-benzenesulfonamide] it was 0.183 µM; in that of `CN1CCN(CCOc2cccc(Nc3nccc(Nc4ccc5c(c4S(N)(=O)=O)OCCO5)n3)c2)CC1` [Example 11], 0.016 µM.
For `CNc1cc(Nc2nccc(Nc3cccc(OC)c3S(N)(=O)=O)n2)ccc1C` [Example 139, 2-Methoxy-6-[2-(4-methyl-3-methyl-amino-phenylamino)-pyrimidin-4-ylamino]-benzenesulfonamide], the midpoint of inhibition, the IC50, lay at 0.037 µM.

Usually IC50 stands for the concentration that gives 50% inhibition. Low readings indicate higher potency, high ones lower potency.
